Read-outs that look alike come from different tables or passages of the source.
Experiments:
[1] = tested on: A549 (lung carcinoma) xenografts; assay: A549 human lung carcinoma xenograft study in nude athymic mice; format: in vivo
Excerpt: Xenografts for human lung cancer are set-up in groups of nude, athymic mice. The cell line selected was A549 (ATCC number CCL-185), a lung carcinoma.

human tumours = conditions: phase I monotherapy, cited from earlier work
[2] = with thalidomide, cited from earlier work
[3] = tested on: glucoronidation and 6-methylhydroxylation of DMXAA in mouse liver microsomes; conditions: diclofenac 100 μM; cited from earlier work
[4] = tested on: glucoronidation and 6-methylhydroxylation of DMXAA in human liver microsomes; conditions: diclofenac 100 μM; cited from earlier work
[5] = diclofenac 100 mg/kg i.p., cited from earlier work

For `Cc1ccc2c(=O)c3cccc(CC(=O)O)c3oc2c1C` [DMXAA, 5,6-dimethylxanthenone-4-acetic acid], the Drug deaths ([1]; A549 xenografts, DMXAA 21 mg/kg, Erbitux 33 mg/kg by injection, deaths/mice per group) was 2/10, the “Response CR” value ([1]; Complete Response (cure; undetectable tumour over two weeks), Table 2) was 0 and the “Response PD” value ([1]; Progressive Disease (≧50% increase in tumour size), Table 2) was 2/10. The “Response SD” value ([1]; Stable Disease (does not satisfy criteria for PR or PD), Table 2) was 16, the “Tumour Growth Delay” value ([1]; difference in days for treated versus control tumours to quadruple in volume) was 16 days and the “TTP” value ([1]; median time to disease progression) was 16 days. For the same compound, the “Regression Duration” value ([1]; number of days that tumour volume is less than the original treatment volume) was 0 days, the “Median VQT (Range; days)” value ([1]; tumour volume quadrupling time, A549 xenografts) was 48 days and the “tumour blood flow (dynamic MRI)” value (human tumours; well-tolerated doses) was “significant reduction in tumour blood flow”. The tumour responses (human tumours) was “very few tumour responses”.

In the case of `O=C1CCC(N2C(=O)c3ccccc3C2=O)C(=O)N1` (stereo not drawn) [Thalidomide, thalidomide], the “increase of the AUC of DMXAA” value ([2]; liver) is given as 1.8 times, the “increase of the AUC of DMXAA” value ([2]; plasma) is given as 1.8 times and the “increase of the AUC of DMXAA” value ([2]; spleen) is given as 1.8 times. The “increase of the AUC of DMXAA” value ([2]; tumour) was “three times”.

In the case of `O=C(O)Cc1ccccc1Nc1c(Cl)cccc1Cl` [diclofenac], the “inhibition of 6-methylhydroxylation of DMXAA” value [3] is listed as > 54%, the “inhibition of glucoronidation of DMXAA” value [3] is listed as > 70% and the “inhibition of 6-methylhydroxylation of DMXAA” value [4] is listed as > 54%. For the same compound, the “inhibition of glucoronidation of DMXAA” value [4] was > 70%, the “increase in the plasma DMXAA AUC” value ([5]; female mice) was 31% and the “increase in DMXAA T1/2” value ([5]; male and female mice, P<0.05) was “threefold increase”. The “increase in the plasma DMXAA AUC” value ([5]; male mice) was 24%.

— patent US20100104565A1, “COMBINATIONS COMPRISING DMXAA FOR THE TREATMENT OF CANCER” (ANTISOMA RESEARCH LIMITED, priority 2005, published 2010)
